Source: patent publication US20220313702A1, “OXATHIAZIN COMPOUNDS FOR INHIBITING GAPDH” (Geistlich Pharma AG, priority 2019, published 2022)
Read-outs that look alike come from different tables or passages of the source. Each block holds one compound with its values, some of them ahead of it.

Key:
[1] = system: Bo80 pancreatic primary cancer cell line; experiment: test of secondary resistance, Bo80; settings: Bo80, 8 weekly treatment cycles, BrdU assay, vs untreated 8-week cultures
Description: (§10) Controls corresponded to cells cultured for 8 weeks without drug treatment (dark columns).
(§11) Secondary resistance to 2250 was tested to imitate the repetitive bolus administration of the drug over a period of up to 8 weeks. Gemcitabine was used as comparator drug. A potential secondary resistance was expected to manifest itself in a decreased ability of either drug to impair cell viability. The study was performed with 3 pancreatic tumor cell lines, AsPC-1, PancTul and Bo80, the latter being a primary cell line derived from a pancreatic cancer patient. The cells were treated once a week for 24 hours with 2250 or gemcitabine at a dose which destroyed 80-90% of the cells. Subsequently, the media were exchanged and the cells were allowed to regrow in the absence of drug for 6 days.
(§12) This weekly treatment cycle of cell killing and regrowth was repeated for both drugs for 4 weeks, 6 weeks and 8 weeks. Untreated cultures of 4, 6 and 8 weeks were used as controls. Cell viability was tested with the BrdU assay or the MTT assay at 2 hour, 24 hour, and 6 days in every treatment cycle for 4, 6 and 8 weeks.

[2] = system: Chemotherapy-resistant stem cells from advanced Stage 3 and 4 pancreatic cancer human patients; experiment: chemotherapy-resistant stem cells from pancreatic cancer patients; assay type: cell-based; settings: several concentrations
[3] = system: primary cell line derived from human pancreatic cancer (Bo80); experiment: cell viability MTT assay, Bo80 primary pancreatic cancer cells; assay type: cell-based; settings: 24 h at 37° C.
Description: FIG. 6: Synergy between GP-2250 and Gemcitabine: Cell viability was tested in a primary cell line derived from human pancreatic cancer (Bo80). […] When combined, a striking synergy was observed. The number of viable cells was reduced by 70-75%. Cell viability was tested colorimetically using the MTT assay. […] Reduction of chemotherapy drug-related toxicity can be achieved in vitro using the combinations with GP-2250 while maintaining high efficacy. The combination of GP-2250 with gemcitabine was therefore tested in mouse models of patient-derived xenografts to assess the therapeutic potential of this drug combination in vivo (see FIGS. 12-15; FIG. 18). […] When combined, a striking synergy was observed. The number of viable cells was reduced by 70-75%. Cell viability was tested colorimetically using the MTT assay.

[4] = system: neuroendocrine cell line QGP-1; experiment: QGP-1 tumor cell viability in vitro
Description: (§13) Neuroendocrine tumors were tested in vitro using the neuroendocrine cell line QGP-1 and in vivo using mouse models with a QGP-1 cell xenograft and a Bo99 patient-derived pancreatic cancer tissue graft.

[5] = system: AsPC-1 pancreatic cancer cell line; experiment: test of secondary resistance, AsPC-1; settings: AsPC-1, 4 weekly treatment cycles, MTT assay, vs untreated 4-week cultures
Description: (§14) Following 4 weekly cycles of cytotoxic treatment and regrowth (see text), the cytotoxic potency of GP-2250 (FIG. 8A) and of gemcitabine (FIG. 8B) was tested with the BrdU and MTT assay respectively in the AsPC-1 pancreatic cancer cell line (light columns). Controls corresponded to cells cultured for 4 weeks without drug treatment (dark columns).
as §11, §12

[6] = target: GAPDH (Homo sapiens, UniProt P04406); experiment: interactions with GAPDH (covalent labeling); assay type: biochemical
Description: Various oxathiazine-like compounds of the present disclosure are synthesized and are assayed for interactions with GAPDH. Isethionic acid amide and methylene glycol were identified as hydrolytic products. A reactive transient reactive intermediate is isethionic acid hydroxymethylamide. […] The covalently labeled enzyme is purified and reactive intermediates are identified using various analytical methods including mass spectrometry of the labeled peptide is elucidated.

[7] = target: recombinant GAPDH (rGAPDH) (Homo sapiens, UniProt P04406); experiment: Glyceraldehyde-3-phosphate Dehydrogenase Activity Assay Kit with recombinant GAPDH; assay type: biochemical
Description: FIG. 1: Inhibition of GAPDH enzyme activity: Effect of treatment with GP-2250 (100 uM and 250 uM) on the activity of recombinant GAPDH (rGAPDH) was tested with the Glyceraldehyde-3-phosphate Dehydrogenase Activity Assay Kit (Abcam ab204732) following incubation for up to 60 min at 37° C. The rGAPDH activity is inhibited dose- and time-dependently by 100 uM and 250 uM GP-2250 up to 40% compared to the untreated control. […] The GP-2250 curves are the measured data, not normalized to controls. Data are presented as mean+/−S.D.
The incubation time may be critical as it is a cell-free assay. Specific doses required for a half-maximal or full inhibition of GAPDH are tested in vitro and in vivo in rodents. These in vitro and in vivo data provide a target-related measure of the dose required to inhibit the GAPDH in tissue, e.g., cancer tissue, to various degrees, which is a more direct measure of the impact of the compounds of the present disclosure in contrast to cellular assays such as induction of apoptosis or ROS production.
GAPDH is the rate limiting glycolytic enzyme in cells operating under conditions of aerobic glycolysis, such as tumor cells. Partial inhibition is therefore expected to impair the energy metabolism of tumor cells. This is in contrast to normal cells. […] The GP-2250 curves are the measured data, not normalized to controls. […]

[8] = system: BxPC3 pancreatic cancer cell line; experiment: fluorescent ROS detection assay, BxPC3; assay type: cell-based
Description: (§1) FIG. 2: Formation of ROS: The effect of treatment with the indicated concentrations of GP-2250 on the formation of ROS was tested in two pancreatic cancer cell lines a) PancTul and b) BxPC3, using a fluorescent ROS detection assay (ROS/Superoxide Detection Assay Kit, Abcam (ab139476)) following incubation with GP-2250 for 90 min at 37° C. Negative controls (NC+NAC) contained the ROS inhibitor which is part of the Assay Kit plus N-acetylcysteine (NAC; 5 mM). Untreated control (U). Data are presented as mean+/−S.D. Significance levels calculated in comparison to untreated controls (U). * p<0.05, ** p<0.01, *** p<0.001.
(§2) The effects of treatment with various concentrations of GP-2250 on the formation of ROS was tested in two pancreatic cancer cell lines a) PancTul and b) BxPC3 as shown in FIG. 2. […] The BxPC3 cell line was more sensitive to forming ROS than Panc Tul. The rather high concentrations of GP-2250 which are required for the formation of ROS (equal or higher than 500 uM) are most likely due to the short incubation time of 90 minutes in this cellular assay. A higher potency of GP-2250 would be expected at longer incubation times.
(§3) Untreated control (U). Data are presented as mean+/−S.D. Significance levels calculated in comparison to untreated controls (U). * p<0.05, ** p<0.01, *** p<0.001.

[9] = system: PancTul cell line; experiment: ATP luminescent detection kit, PancTul; assay type: cell-based
Description: (§4) FIG. 3: Decrease of ATP in PancTul cell line: Effect of treatment with the indicated concentrations of GP-2250 on the amount of ATP (dark column) in comparison to the cell viability (light column) after a) 3 h, b) 6 h and c) 24 h incubation at 37° C. The strong decrease of ATP reflects the impairment of the energy metabolism by GP-2250. The decrease of ATP precedes the decrease in cell viability and is therefore not caused by the impairment of cell viability. ATP was measured with a luminescent detection kit (Abcam ab113849), cell viability with the MTT test (Sigma M5655). Data are given as % change versus untreated control (NC), presented as mean+/−S.D. Significance levels in comparison to NC. * p<0.05, ** p<0.01, ***p<0.001.
(§5) The level of ATP in a tumor cell is taken as a measure of the impact of GP-2250 on its energy metabolism. […] The decrease of ATP is already apparent after 3 h with PancTul and at 6 h with the less sensitive BxPC3 at 250 uM. It is this concentration which causes partial inhibition of GAPD (FIG. 1) and thereby links GAPD inhibition to the decrease of ATP, which in itself is a sufficient signal for the induction of apoptosis. […]
(§6) The strong decrease of ATP reflects the impairment of the energy metabolism by GP-2250. […] ATP was measured with a luminescent detection kit (Abcam ab113849), cell viability with the MTT test (Sigma M5655). […]

[10] = system: PancTul pancreatic cancer cell line; experiment: fluorescent ROS detection assay, PancTul; assay type: cell-based
Description: as §1, §2, §3

[11] = system: Bax; experiment: Western blot of Bax expression in PancTul cells; assay type: cell-based; settings: 200 μM, 0 h, 6 h, 12 h and 24 h, α-tubulin as control
Description: (§7) FIG. 5: Regulation of oncoproteins Bax and Bcl-2 expression: Effect of treatment with 200 μM GP-2250 for 0 h, 6 h, 12 h and 24 h on the expression of the oncoproteins a) Bax and b) Bcl-2 was tested in PancTul cells by Western blots with α-tubulin as control. The expression of the pro-apoptotic protein Bax was increased whereas the expression of the anti-apoptotic Bcl-2 was decreased over time of incubation with GP-2250.
(§8) Apoptotic pathways are triggered by a decrease of ATP or an increase of ROS. They result in a shift of the equilibrium between the pro-apoptotic (death) protein Bax and the anti-apoptotic (survival) protein Bcl-2. The mitochondria are destabilized and the apoptotic caspase cascade finalizes the apoptotic cell suicide. GP-2250 (200 μM) increased the expression of Bax and decrease the expression of BCl-2 with increasing incubation times as shown in the Western blots (FIG. 5). […] In addition, the concentration of GP-2250 which is sufficient to change the Bax/Bcl-2 ratio (200 uM) corresponds to that for partial GAPDH inhibition (250 uM) (FIG. 1). This finding links GAPDH inhibition to the induction of apoptosis.
(§9) The expression of the pro-apoptotic protein Bax was increased whereas the expression of the anti-apoptotic Bcl-2 was decreased over time of incubation with GP-2250.

[12] = system: Bcl-2; experiment: Western blot of Bcl-2 expression in PancTul cells; assay type: cell-based; settings: 200 μM, 0 h, 6 h, 12 h and 24 h, α-tubulin as control
Description: as §7, §8, §9

[13] = system: neuroendocrine cell line QGP-1
Description: as §13

[14] = system: BxPC3 cell line; experiment: ATP luminescent detection kit, BxPC3; assay type: cell-based
Description: as §4, with “4:” for “3:”, “BxPC3” for “PancTul”
as §5, §6

[15] = system: AsPC-1 pancreatic cancer cell line
Description: as §14, §11, §12

[16] = system: BxPC3 cell line; experiment: cell viability MTT test, BxPC3; assay type: cell-based
Description: as §4, with “4:” for “3:”, “BxPC3” for “PancTul”
as §4, with “The” for “FIG. 3: Decrease of ATP in PancTul cell line: Effect of treatment with the indicated concentrations of GP-2250 on the amount of ATP (dark column) in comparison to the cell viability (light column) after a) 3 h, b) 6 h and c) 24 h incubation at 37° C. The”

[17] = system: PancTul pancreatic cancer cell line; experiment: test of secondary resistance, PancTul; assay type: cell-based; settings: 6 weekly treatment cycles, BrdU assay
Source text: FIG. 9: Test of secondary resistance.
Gemcitabine was used as comparator drug.

[18] = system: PancTul cell line; experiment: cell viability MTT test, PancTul; assay type: cell-based
Description: as §4
as §4, with “The” for “FIG. 3: Decrease of ATP in PancTul cell line: Effect of treatment with the indicated concentrations of GP-2250 on the amount of ATP (dark column) in comparison to the cell viability (light column) after a) 3 h, b) 6 h and c) 24 h incubation at 37° C. The”

[19] = system: Bo80 pancreatic primary cancer cell line
Description: as §10, §11, §12

recombinant GAPDH (rGAPDH), sequence (P04406 whole entry): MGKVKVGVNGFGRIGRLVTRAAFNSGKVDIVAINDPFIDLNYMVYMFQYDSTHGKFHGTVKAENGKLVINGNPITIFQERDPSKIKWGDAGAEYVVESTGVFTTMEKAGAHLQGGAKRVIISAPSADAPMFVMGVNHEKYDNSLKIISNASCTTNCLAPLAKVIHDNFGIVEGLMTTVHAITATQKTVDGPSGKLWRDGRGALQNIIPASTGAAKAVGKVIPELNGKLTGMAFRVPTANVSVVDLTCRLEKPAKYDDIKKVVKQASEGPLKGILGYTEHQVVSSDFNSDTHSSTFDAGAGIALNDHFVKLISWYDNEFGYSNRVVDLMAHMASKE
GAPDH, sequence (P04406 whole entry): as above

Structure (SMILES): Nc1ccn([C@@H]2O[C@H](CO)[C@@H](O)C2(F)F)c(=O)n1 [gemcitabine]
- cytotoxic potency after repeated treatment (secondary resistance) [1]: reduced cytotoxic potency
- effect on chemotherapy-resistant stem cells [2]: minimal effect at all tested concentrations
- cell viability, drug alone ([3]; Gemcitabine 100 uM or 1000 uM): inactive per se
- cytotoxic effect in QGP-1 cells, monotherapy [4]: concentration-dependent cytotoxic effect
- cytotoxic potency after repeated treatment (secondary resistance) [5]: reduced cytotoxic potency

- interaction with the reactive cysteine-SH in the active center of GAPDH [6]: inactivates the enzyme
Structure (SMILES): O=S(=O)(CCO)NCO [isethionic acid hydroxymethylamide]

- inhibition of rGAPDH activity ([7]; 100 uM and 250 uM GP-2250, incubation up to 60 min at 37° C., compared to untreated control, dose- and time-dependent): up to 40%
- inhibition of recombinant GAPDH ([7]; cell-free assay): directly inhibited
Structure (SMILES): O=S1(=O)CCOCN1 [GP-2250, Tetrahydro1,4,5-oxathiazin-4-dioxide]
- increase of ROS ([8]; BxPC3, 90 min at 37° C.): concentration dependent
- concentrations required for the formation of ROS ([8]; BxPC3, incubation time of 90 minutes): ≥ 500 µM
- incubation time at which decrease of ATP is apparent ([9]; 250 uM): 3 h
- ATP amount ([9]; 3 h, 6 h, 24 h at 37° C.): decreases depending on the concentration of GP-2250 and the incubation time
- increase of ROS ([10]; 90 min at 37° C.): concentration dependent
- concentrations required for the formation of ROS ([10]; incubation time of 90 minutes): ≥ 500 µM
- effect on chemotherapy-resistant stem cells [2]: some effect at higher concentrations
- expression of Bax [11]: increased
- expression of Bcl-2 [12]: decreased
- cytotoxic effect in QGP-1 cells, monotherapy [13]: concentration-dependent cytotoxic effect
- cell viability, drug alone ([3]; GP-2250 200 uM): inactive per se
- incubation time at which decrease of ATP is apparent ([14]; BxPC3, 250 uM): 6 h
- ATP amount ([14]; BxPC3, 3 h, 6 h, 24 h at 37° C.): decreases depending on the concentration of GP-2250 and the incubation time
- cytotoxic potency after repeated treatment (secondary resistance) [15]: remained unchanged
- impairment of cell viability (MTT) relative to ATP decrease [16]: required higher concentrations than those required to decrease ATP
- cytotoxic potency after repeated treatment (secondary resistance) [17]: remained unchanged
- impairment of cell viability (MTT) relative to ATP decrease [18]: required higher concentrations than those required to decrease ATP
- cytotoxic potency after repeated treatment (secondary resistance) [19]: remained unchanged
